Source: US8927548B2, “Triazole compounds that modulate HSP90 activity” (Synta Pharmaceuticals Corp., priority 2006, dated 2015)
Counter-ions that a name gives are not always drawn.

Key:
Hsp90 = test: Degradation of Her2 / inhibition of Hsp90, Method 2: MV-4-11 cell survival after 72 hours (Cell Counting Kit-8); type: cell-based, human; settings: Table 4, IC50 range, MV-4-11 cells
Experimental: MV-4-11 cells (20,000 cells/well) were cultured in 96-well plates and maintained at 37° C. for several hours. The cells were treated with a compound of the invention or 17AAG (a positive control) at various concentrations and incubated at 37° C. for 72 hours. Cell survival was measured with Cell Counting Kit-8 (Dojindo Laboratories, Cat. # CK04). […] Tables 4-6: IC50 range of compounds of the invention for inhibition of Hsp90

Her2 = test: Degradation of Her2 in BT-474 cells, Method 1 (Western blot); type: cell-based, human; settings: 0.5 μM, overnight
Experimental: Human high-Her2 breast carcinoma BT474 (HTB-20), SK-BR-3 (HTB-30) and MCF-7 breast carcinoma (HTB-22) from American Type Culture Collection, VA, USA were grown in Dulbecco's modified Eagle's medium with 4 mM L-glutamine and antibiotics ([…] penicillin and 100 μg/ml streptomycine; GibcoBRL). To obtain exponential cell growth, cells were trypsinized, counted and seeded at a cell density of 0.5×10^6 cells/ml regularly, every 3 days. All experiments were performed on day 1 after cell passage.
BT-474 cells are treated with 0.5 μM, 2 μM, or 5 μM of 17AAG (a positive control) or 0.5 μM, 2 μM, or 5 μM of a compound of the invention overnight in DMEM medium. After treatment, each cytoplasmic sample is prepared from 1×10^6 cells by incubation of cell lysis buffer (#9803, cell Signaling Technology) on ice for 10 minutes. The resulting supernatant used as the cytosol fractions is dissolved with sample buffer for SDS-PAGE and run on a SDS-PAGE gel, blotted onto a nitrocellulose membrane by using semi-dry transfer. Non-specific binding to nitrocellulose is blocked with 5% skim milk in TBS with 0.5% Tween at room temperature for 1 hour, then probed with anti-Her2/ErB2 mAb (rabbit IgG, #2242, Cell Signaling) and anti-Tubulin (T9026, Sigma) as housekeeping control protein. […]

Work on CC(=O)N1Cc2ccc(-n3c(O)nnc3-c3cc(C(C)C)c(O)cc3O)cc2C1 [Compound 23, 1-(5-(3-(2,4-dihydroxy-5-isopropylphenyl)-5-hydroxy-4H-1,2,4-triazol-4-yl)isoindolin-2-yl)ethanone] yielded an IC50 (Hsp90) of less than 500 nM.
In the case of CC(C)c1cc(-c2nnc(O)n2-c2ccc3c(c2)CCN3C(=O)C2CCC(N)CC2)c(O)cc1O (stereo not drawn) [Compound 39, (4-Aminocyclohexyl)(5-(3-(2,4-dihydroxy-5-isopropylphenyl)-5-hydroxy-4H-1,2,4-triazol-4-yl)indolin-1-yl)methanone hydrochloride], the IC50 (Hsp90) is reported as less than 1000 nM.
For C=CCNC1=C2C[C@@H](C)C[C@H](OC)[C@H](O)[C@@H](C)/C=C(\C)[C@H](OC(N)=O)[C@@H](OC)/C=C\C=C(/C)C(=O)NC(=CC1=O)C2=O [Compound 17AAG, 17-allylamino-17-demethoxygeldanamycin], the “degradation of Her2” value (Her2) was “partial degradation”.
